Laboratory results published in patent US20150005281A1, “PYRIMIDINE-2,4-DIAMINE DERIVATIVES AS KINASE INHIBITORS” (Cellzome Limited, priority 2011, published 2015).
pIC50: −log10 of the molar value. Structures can show the parent of a compound that is named as a salt.

Columns and labels:
Type in all cases: binding
TYK2 = target: T1, TYK2 (Homo sapiens, UniProt P29597); experiment: Kinobeads assay with immunodetection, TYK2; details: for pIC50: Kinobeads assay, mixed Molt4/Ramos lysate, read-out: Inhibition values (IC50) Tyk2
T1 construct: endogenous in cells; host or cells: Molt4 (ATCC CRL-1582) and Ramos (ATCC CRL-1596) cells; mixed lysate 1:2
Protocol: (§1) Determination of the Effect of the Compounds According to the Invention on Janus Kinases (JAK Family) in Kinobeads™ Assays with Immunodetection of Kinases
(§2) The compounds of the present invention as described in the previous examples were tested in a Kinobeads™ assay as described for ZAP-70 (WO-A 2007/137867). Briefly, test compounds (at various concentrations) and the affinity matrix with the immobilized aminopyrido-pyrimidine ligand 24 were added to cell lysate aliquots and allowed to bind to the proteins in the lysate sample. After the incubation time the beads with captured proteins were separated from the lysate. Bound proteins were then eluted and the presence of JAK1, JAK2, JAK3 and TYK2 was detected and quantified using specific antibodies in a dot blot procedure and the Odyssey infrared detection system. Dose response curves for individual kinases were generated and IC50 values calculated. Kinobeads™ assays for ZAP-70 (WO-A 2007/137867) and for kinase selectivity profiling (WO-A 2006/134056) have been previously described.
(§3) The affinity matrix was washed two times with 15 mL of 1×DP buffer containing 0.2% NP40 (IGEPAL® CA-630, Sigma, #13021) and then resuspended in 1×DP buffer containing 0.2% NP40 (3% beads slurry).
(§4) 5×DP buffer: 250 mM Tris-HCl pH 7.4, 25% Glycerol, 7.5 mM MgCl2, 750 mM NaCl, 5 mM Na3VO4; filter the 5×DP buffer through a 0.22 μm filter and store in aliquots at −80° C. The 5×DP buffer is diluted with H2O to 1×DP buffer containing 1 mM DTT and 25 mM NaF.
(§5) Stock solutions of test compounds were prepared in DMSO. In a 96 well plate 30 μL solution of diluted test compounds at 5 mM in DMSO were prepared. Starting with this solution a 1:3 dilution series (9 steps) was prepared. For control experiments (no test compound) a buffer containing 2% DMSO was used.
(§6) Molt4 cells (ATCC catalogue number CRL-1582) and Ramos cells (ATCC catalogue number CRL-1596) were grown in 1 L Spinner flasks (Integra Biosciences, #182101) in suspension in RPMI 1640 medium (Invitrogen, #21875-034) supplemented with 10% Fetal Bovine Serum (Invitrogen) at a density between 0.15×10^6 and 1.2×10^6 cells/mL. Cells were harvested by centrifugation, washed once with 1×PBS buffer (Invitrogen, #14190-094) and cell pellets were frozen in liquid nitrogen and subsequently stored at −80° C. Cells were homogenized in a Potter S homogenizer in lysis buffer: 50 mM Tris-HCl, 0.8% NP40, 5% glycerol, 150 mM NaCl, 1.5 mM MgCl2, 25 mM NaF, 1 mM sodium vanadate, 1 mM DTT, pH 7.5. One complete EDTA-free tablet (protease inhibitor cocktail, Roche Diagnostics, 1873580) per 25 ml, buffer was added. The material was dounced 10 times using a mechanized POTTER S, transferred to 50 mL falcon tubes, incubated for 30 minutes on ice and spun down for 10 minutes at 20,000 g at 4° C. (10,000 rpm in Sorvall SLA600, precooled). The supernatant was transferred to an ultracentrifuge (UZ)-polycarbonate tube (Beckmann, 355654) and spun for 1 hour at 100.000 g at 4° C. (33.500 rpm in Ti50.2, precooled). The supernatant was transferred again to a fresh 50 mL falcon tube, the protein concentration was determined by a Bradford assay (BioRad) and samples containing 50 mg of protein per aliquot were prepared. The samples were immediately used for experiments or frozen in liquid nitrogen and stored frozen at −80° C.
(§7) Cell lysate (approximately 50 mg protein per plate) was thawed in a water bath at room temperature and then stored on ice. To the thawed cell lysate 1×DP 0.8% NP40 buffer containing protease inhibitors (1 tablet for 25 mL buffer; EDTA-free protease inhibitor cocktail; Roche Diagnostics 1873580) was added in order to reach a final protein concentration of 10 mg/mL total protein. The diluted cell lysate was stored on ice. Mixed Molt4/Ramos lysate was prepared by combining one volume of Molt4 lysate and two volumes of Ramos lysate (ratio 1:2). […]

JAK2 = target: T2, JAK2 (Homo sapiens, UniProt O60674); experiment: Kinobeads assay with immunodetection, JAK2; details: mixed Molt4/Ramos lysate, read-out: Inhibition values (IC50) JAK2
T2 construct: endogenous in cells; host or cells: Molt4 (ATCC CRL-1582) and Ramos (ATCC CRL-1596) cells; mixed lysate 1:2
Protocol: as §1, §2, §3, §4, §5, §6, §7

JAK1 = target: T3, JAK1 (Homo sapiens, UniProt P23458); experiment: Kinobeads assay with immunodetection, JAK1; details: for pIC50: Kinobeads assay, mixed Molt4/Ramos lysate, read-out: Inhibition values (IC50) JAK1
T3 construct: endogenous in cells; host or cells: Molt4 (ATCC CRL-1582) and Ramos (ATCC CRL-1596) cells; mixed lysate 1:2
Protocol: as §1, §2, §3, §4, §5, §6, §7

JAK3 = target: T4, JAK3 (Homo sapiens, UniProt P52333); experiment: Kinobeads assay with immunodetection, JAK3; details: for pIC50: Kinobeads assay, mixed Molt4/Ramos lysate, read-out: Inhibition values (IC50) JAK3
T4 construct: endogenous in cells; host or cells: Molt4 (ATCC CRL-1582) and Ramos (ATCC CRL-1596) cells; mixed lysate 1:2
T4 sequence (P52333 1-1124): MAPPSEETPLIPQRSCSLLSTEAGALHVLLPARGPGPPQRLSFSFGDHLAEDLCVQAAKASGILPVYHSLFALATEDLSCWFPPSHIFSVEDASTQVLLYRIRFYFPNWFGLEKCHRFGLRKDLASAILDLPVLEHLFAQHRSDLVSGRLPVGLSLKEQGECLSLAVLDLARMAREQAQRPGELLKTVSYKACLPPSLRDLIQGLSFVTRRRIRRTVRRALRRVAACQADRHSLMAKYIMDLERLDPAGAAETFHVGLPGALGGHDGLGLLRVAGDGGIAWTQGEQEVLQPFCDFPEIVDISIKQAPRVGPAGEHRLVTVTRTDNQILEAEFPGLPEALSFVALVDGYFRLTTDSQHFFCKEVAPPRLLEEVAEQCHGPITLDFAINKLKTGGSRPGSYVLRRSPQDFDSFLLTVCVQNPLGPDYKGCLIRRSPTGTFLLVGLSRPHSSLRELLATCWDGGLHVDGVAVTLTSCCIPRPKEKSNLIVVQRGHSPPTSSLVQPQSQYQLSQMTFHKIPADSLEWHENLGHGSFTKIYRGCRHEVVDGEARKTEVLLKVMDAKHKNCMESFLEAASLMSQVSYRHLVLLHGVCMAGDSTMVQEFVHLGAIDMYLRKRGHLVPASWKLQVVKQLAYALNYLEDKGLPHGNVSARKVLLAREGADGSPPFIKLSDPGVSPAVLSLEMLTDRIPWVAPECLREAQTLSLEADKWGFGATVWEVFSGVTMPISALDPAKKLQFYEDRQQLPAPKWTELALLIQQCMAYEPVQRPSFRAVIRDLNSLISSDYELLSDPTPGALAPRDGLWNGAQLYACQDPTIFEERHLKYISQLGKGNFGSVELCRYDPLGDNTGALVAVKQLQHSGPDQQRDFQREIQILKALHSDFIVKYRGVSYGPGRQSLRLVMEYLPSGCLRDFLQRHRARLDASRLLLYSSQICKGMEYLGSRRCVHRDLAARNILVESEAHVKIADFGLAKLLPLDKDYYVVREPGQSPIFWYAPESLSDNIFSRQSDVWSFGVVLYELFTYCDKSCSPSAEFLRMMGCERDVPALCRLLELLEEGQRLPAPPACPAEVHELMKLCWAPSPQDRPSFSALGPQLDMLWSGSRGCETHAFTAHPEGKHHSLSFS
Protocol: as §1, §2, §3, §4, §5, §6, §7

T3 sequence (P23458 whole entry): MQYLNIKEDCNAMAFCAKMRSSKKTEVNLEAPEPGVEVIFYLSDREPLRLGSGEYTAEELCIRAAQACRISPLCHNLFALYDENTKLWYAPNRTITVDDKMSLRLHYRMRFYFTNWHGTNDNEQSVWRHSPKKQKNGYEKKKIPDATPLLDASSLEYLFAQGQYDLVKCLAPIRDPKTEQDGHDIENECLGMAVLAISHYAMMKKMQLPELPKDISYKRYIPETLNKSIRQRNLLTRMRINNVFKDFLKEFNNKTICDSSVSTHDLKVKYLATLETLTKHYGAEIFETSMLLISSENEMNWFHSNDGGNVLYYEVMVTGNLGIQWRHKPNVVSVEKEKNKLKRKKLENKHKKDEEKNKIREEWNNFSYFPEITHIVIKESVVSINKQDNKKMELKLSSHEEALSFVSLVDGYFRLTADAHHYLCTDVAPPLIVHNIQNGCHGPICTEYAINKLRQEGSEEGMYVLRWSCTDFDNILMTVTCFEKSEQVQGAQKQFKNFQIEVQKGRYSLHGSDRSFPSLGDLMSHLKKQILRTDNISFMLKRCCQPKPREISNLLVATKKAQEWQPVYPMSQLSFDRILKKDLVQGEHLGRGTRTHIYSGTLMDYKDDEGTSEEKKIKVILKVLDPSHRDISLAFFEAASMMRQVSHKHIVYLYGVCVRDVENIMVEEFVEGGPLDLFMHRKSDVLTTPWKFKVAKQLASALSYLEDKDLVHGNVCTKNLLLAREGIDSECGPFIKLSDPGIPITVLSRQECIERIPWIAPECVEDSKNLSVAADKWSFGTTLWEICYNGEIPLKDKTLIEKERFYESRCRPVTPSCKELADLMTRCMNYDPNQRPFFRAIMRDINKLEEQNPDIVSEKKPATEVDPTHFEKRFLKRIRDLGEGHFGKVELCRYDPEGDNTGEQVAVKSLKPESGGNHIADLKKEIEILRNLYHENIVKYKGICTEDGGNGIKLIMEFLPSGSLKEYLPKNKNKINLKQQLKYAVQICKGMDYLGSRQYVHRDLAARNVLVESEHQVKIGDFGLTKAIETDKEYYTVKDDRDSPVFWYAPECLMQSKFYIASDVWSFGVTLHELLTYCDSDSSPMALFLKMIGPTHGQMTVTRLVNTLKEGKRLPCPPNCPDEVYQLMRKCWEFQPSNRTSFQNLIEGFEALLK
T1 sequence (P29597 whole entry): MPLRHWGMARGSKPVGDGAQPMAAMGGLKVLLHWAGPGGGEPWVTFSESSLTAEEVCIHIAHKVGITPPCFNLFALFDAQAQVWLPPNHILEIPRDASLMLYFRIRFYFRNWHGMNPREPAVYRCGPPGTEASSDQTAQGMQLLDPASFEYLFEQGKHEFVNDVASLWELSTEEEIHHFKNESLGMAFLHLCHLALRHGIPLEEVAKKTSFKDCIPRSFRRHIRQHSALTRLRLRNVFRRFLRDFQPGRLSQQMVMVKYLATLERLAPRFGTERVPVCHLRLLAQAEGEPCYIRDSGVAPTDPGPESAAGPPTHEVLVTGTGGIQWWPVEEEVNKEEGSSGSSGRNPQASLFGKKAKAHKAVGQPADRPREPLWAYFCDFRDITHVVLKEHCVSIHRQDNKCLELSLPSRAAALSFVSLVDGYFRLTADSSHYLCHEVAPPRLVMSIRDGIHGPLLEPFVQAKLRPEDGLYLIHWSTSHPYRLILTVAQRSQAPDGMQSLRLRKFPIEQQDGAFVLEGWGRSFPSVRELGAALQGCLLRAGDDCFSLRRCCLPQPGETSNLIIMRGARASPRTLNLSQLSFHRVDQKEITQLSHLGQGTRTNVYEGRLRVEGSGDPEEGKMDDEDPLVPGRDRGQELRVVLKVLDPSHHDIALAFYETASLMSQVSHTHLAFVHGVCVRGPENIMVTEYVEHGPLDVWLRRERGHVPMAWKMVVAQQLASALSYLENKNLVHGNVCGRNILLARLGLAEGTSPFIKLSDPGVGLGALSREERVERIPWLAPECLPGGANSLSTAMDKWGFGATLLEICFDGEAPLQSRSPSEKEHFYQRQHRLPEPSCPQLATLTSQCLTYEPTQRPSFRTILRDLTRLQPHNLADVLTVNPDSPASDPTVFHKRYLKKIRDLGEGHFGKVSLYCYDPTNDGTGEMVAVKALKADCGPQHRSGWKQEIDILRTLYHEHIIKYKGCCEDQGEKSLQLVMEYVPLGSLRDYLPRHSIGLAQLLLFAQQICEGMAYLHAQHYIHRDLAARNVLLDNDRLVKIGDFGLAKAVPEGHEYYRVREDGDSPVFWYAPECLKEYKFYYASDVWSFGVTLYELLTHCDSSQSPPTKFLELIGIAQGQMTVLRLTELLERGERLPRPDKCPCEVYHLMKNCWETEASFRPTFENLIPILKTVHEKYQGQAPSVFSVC
T2 sequence (O60674 whole entry): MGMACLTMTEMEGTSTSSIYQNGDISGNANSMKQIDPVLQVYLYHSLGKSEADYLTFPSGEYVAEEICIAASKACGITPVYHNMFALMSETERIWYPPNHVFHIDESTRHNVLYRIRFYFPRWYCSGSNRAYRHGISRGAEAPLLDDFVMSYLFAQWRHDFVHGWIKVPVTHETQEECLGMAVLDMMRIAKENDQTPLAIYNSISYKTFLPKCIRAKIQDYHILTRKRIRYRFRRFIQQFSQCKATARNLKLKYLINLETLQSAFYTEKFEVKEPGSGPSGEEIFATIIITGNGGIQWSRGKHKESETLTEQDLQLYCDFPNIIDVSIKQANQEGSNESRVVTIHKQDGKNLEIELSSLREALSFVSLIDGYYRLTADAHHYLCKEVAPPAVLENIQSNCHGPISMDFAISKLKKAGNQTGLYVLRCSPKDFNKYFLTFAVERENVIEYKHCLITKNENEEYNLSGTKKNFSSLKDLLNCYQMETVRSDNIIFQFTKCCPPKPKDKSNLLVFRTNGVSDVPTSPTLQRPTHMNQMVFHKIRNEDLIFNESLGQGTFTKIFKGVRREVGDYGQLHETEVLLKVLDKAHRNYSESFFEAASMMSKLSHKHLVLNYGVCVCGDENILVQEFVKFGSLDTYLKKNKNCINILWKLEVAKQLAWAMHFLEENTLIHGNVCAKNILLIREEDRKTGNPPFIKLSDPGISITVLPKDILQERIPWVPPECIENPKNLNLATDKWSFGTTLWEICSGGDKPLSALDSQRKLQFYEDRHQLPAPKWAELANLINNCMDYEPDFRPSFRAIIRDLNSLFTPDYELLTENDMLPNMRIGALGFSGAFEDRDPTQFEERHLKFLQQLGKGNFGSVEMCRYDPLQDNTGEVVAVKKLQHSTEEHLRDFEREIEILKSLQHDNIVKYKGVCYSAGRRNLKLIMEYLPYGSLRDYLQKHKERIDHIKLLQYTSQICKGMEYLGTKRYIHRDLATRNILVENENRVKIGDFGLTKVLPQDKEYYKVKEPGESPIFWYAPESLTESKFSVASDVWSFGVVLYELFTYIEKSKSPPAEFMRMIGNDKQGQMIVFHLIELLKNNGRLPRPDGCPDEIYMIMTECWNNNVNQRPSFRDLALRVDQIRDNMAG

SMILES	pIC50 (TYK2)	Selectivity ratio over JAK2, Tyk2 (TYK2)	pIC50 (JAK2)	pIC50 (JAK1)	pIC50 (JAK3)	Selectivity ratio over JAK2, JAK1 (JAK1)	Selectivity ratio over JAK2, JAK3 (JAK3)
Cn1cc(Nc2ncc(Cl)c(NC[C@H]3CCCN3CCC#N)n2)cn1 [Example 49, (R)-3-(2-((5-chloro-2-(1-methyl-1H-pyrazol-4-ylamino)pyrimidin-4-ylamino)methyl)pyrrolidin-1-yl)propanenitrile]	> 7.00	Tyk2 = 42	6.00 to 7.00	> 7.00	> 7.00	–	–
CN(C)CC(=O)N1CC[C@H](CNc2nc(Nc3cnn(C)c3)ncc2Cl)C1 [Example 59, (R)-1-(3-((5-chloro-2-(1-methyl-1H-pyrazol-4-ylamino)pyrimidin-4-ylamino)methyl)pyrrolidin-1-yl)-2-(dimethylamino)ethanone]	6.00 to 7.00	–	5.00 to 6.00	6.00 to 7.00	5.00 to 6.00	JAK1 = 33	–
CC(=O)N1CC[C@@H](CNc2nc(Nc3cnn(C)c3)ncc2Cl)C1 [Example 26, (S)-1-(3-(((5-chloro-2-((1-methyl-1H-pyrazol-4-yl)amino)pyrimidin-4-yl)amino)methyl)pyrrolidin-1-yl)ethanone]	6.00 to 7.00	–	5.00 to 6.00	6.00 to 7.00	5.00 to 6.00	JAK1 = 9	–
Cn1cc(Nc2ncc(Cl)c(NC[C@@H]3CCCN3CCC#N)n2)cn1 [Example 81, (S)-3-(2-(((5-chloro-2-((1-methyl-1H-pyrazol-4-yl)amino)pyrimidin-4-yl)amino)methyl)pyrrolidin-1-yl)propanenitrile]	> 7.00	Tyk2 = 11	> 7.00	> 7.00	6.00 to 7.00	–	–
Cc1cnc(Nc2cnn(C)c2)nc1NC[C@H]1CCCN1 [Example 72, (R)-5-methyl-N^2-(1-methyl-1H-pyrazol-4-yl)-N^4-(pyrrolidin-2-ylmethyl)pyrimidine-2,4-diamine Hydrochloride]	< 5.00	–	< 5.00	5.00 to 6.00	< 5.00	–	–
CS(=O)(=O)N1CCCC[C@@H]1CNc1nc(Nc2cnn(CCO)c2)ncc1Cl [Example 44, (R)-2-(4-((5-chloro-4-(((1-(methylsulfonyl)piperidin-2-yl)methyl)amino)pyrimidin-2-yl)amino)-1H-pyrazol-1-yl)ethanol]	6.00 to 7.00	–	6.00 to 7.00	6.00 to 7.00	> 7.00	–	JAK3 = 20
CS(=O)(=O)N1CC(CNc2nc(Nc3cnn(CCO)c3)ncc2Cl)C1 [Example 19, 2-(4-((5-chloro-4-(((1-(methylsulfonyl)azetidin-3-yl)methyl)amino)pyrimidin-2-yl)amino)-1H-pyrazol-1-yl)ethanol]	6.00 to 7.00	–	5.00 to 6.00	6.00 to 7.00	> 7.00	–	–
CN1C(=O)CCC1CNc1nc(Nc2cnn(C)c2)ncc1Cl (centres unmarked) [Example 78, 5-(((5-chloro-2-((1-methyl-1H-pyrazol-4-yl)amino)pyrimidin-4-yl)amino)methyl)-1-methylpyrrolidin-2-one]	6.00 to 7.00	–	5.00 to 6.00	6.00 to 7.00	5.00 to 6.00	JAK1 = 38	–
Cc1cnc(Nc2cnn(C)c2)nc1NC[C@@H]1C[C@H](F)CN1CCS(C)(=O)=O [Example 100, N^4-(((2S,4S)-4-fluoro-1-(2-(methylsulfonyl)ethyl)pyrrolidin-2-yl)methyl)-5-methyl-N^2-(1-methyl-1H-pyrazol-4-yl)pyrimidine-2,4-diamine]	> 7.00	–	6.00 to 7.00	> 7.00	6.00 to 7.00	JAK1 = 26	–
CC(C)S(=O)(=O)CCN1CCC[C@@H]1CNc1nc(Nc2cnn(C)c2)ncc1Cl [Example 139, (R)-5-chloro-N^4-((1-(2-(isopropylsulfonyl)ethyl)pyrrolidin-2-yl)methyl)-N^2-(1-methyl-1H-pyrazol-4-yl)pyrimidine-2,4-diamine]	6.00 to 7.00	–	5.00 to 6.00	> 7.00	> 7.00	–	JAK3 = 83
C=CC(=O)N1CCC[C@@H]1CNc1nc(Nc2cnn(CCO)c2)ncc1Cl [Example 4, (R)-1-(2-(((5-chloro-2-((1-(2-hydroxyethyl)-1H-pyrazol-4-yl)amino)pyrimidin-4-yl)amino)methyl)pyrrolidin-1-yl)prop-2-en-1-one]	> 7.00	Tyk2 = 8	6.00 to 7.00	> 7.00	6.00 to 7.00	–	–
Cc1cnc(Nc2cnn(CC(F)F)c2)nc1NC[C@@H]1CCCN1CCS(C)(=O)=O [Example 123, (S)—N^2-(1-(2,2-difluoroethyl)-1H-pyrazol-4-yl)-5-methyl-N^4-((1-(2-(methylsulfonyl)ethyl)pyrrolidin-2-yl)methyl)pyrimidine-2,4-diamine]	> 7.00	–	5.00 to 6.00	> 7.00	6.00 to 7.00	JAK1 = 182	–
C=CC(=O)N1CCC[C@H]1CNc1nc(Nc2cnn(CCO)c2)ncc1Cl [Example 11, (S)-1-(2-(((5-chloro-2-((1-(2-hydroxyethyl)-1H-pyrazol-4-yl)amino)pyrimidin-4-yl)amino)methyl)pyrrolidin-1-yl)prop-2-en-1-one]	6.00 to 7.00	–	< 5.00	6.00 to 7.00	5.00 to 6.00	–	–
